Holding throughout (type): cell-based
For series [1], the system named is K562. Description: Cytostatic/cytotoxic MTT assay, K562. The following applies: Homo sapiens, K562; 72 h incubation; read-out: MTT, IC50 K562. From the text: (§1) Unless otherwise stated, all cells were purchased from the […] (ATCC). The CCRF-CEM line is derived from T lymphoblastic leukemia, evincing high chemosenzitivity, K562 represent cells from a […] patient sample with bcr-abl translocation, HCT116 is colorectal tumor cell line and its p53 gene knock-down counterpart (HCT116p53−/−, Horizon Discovery, UK) is a model of human cancers with p53 inactivation frequently associated with poor prognosis, A549 cell line is lung adenocarcinoma. The daunorubicin resistant subline of CCRF-CEM cells (CEM-DNR bulk) and paclitaxel resistant subline K562-TAX were selected in our laboratory by cultivation of maternal cell lines in increasing concentrations of daunorubicine or paclitaxel, respectively. The CEM-DNR cells overexpress mrp-1 and mdr-1 genes, while K562-TAX cells overexpress mdr-1 only. Both proteins belong to the family of ABC transporters and are involved in the primary and/or acquired multidrug resistance phenomenon (ref.: Gottesman, M. M.; Fojo, T.; Bates, S. E. Multidrug resistance in cancer: role of ATP-dependent transporters. Nat. Rev. Cancer. 2002, 2, 48-58. (b) Noskova, V.; Dzubak, P.; Kuzmina, G.; Ludkova, A.; Stehlik, D.; Trojanec, R.; Janostakova, A.; Korinkova, G.; Mihal, V.; Hajduch, M. In vitro chemoresistance profile and expression/function of MDR associated proteins in resistant cell lines derived from CCRF-CEM, K562, A549 and MDA MB 231 parental cells. Neoplasma 2002, 49, 418-425). Non-malignant MRC-5 and BJ cells, derived from normal human fibroblasts, were used as controls. The cells were maintained in Nunc/Corning 80 cm^2 plastic tissue culture flasks and cultured in cell culture medium (DMEM/RPMI 1640 with 5 g/L glucose, 2 mM glutamine, 100 U/mL penicillin, 100 µg/mL streptomycin, 10% fetal calf serum, and NaHCO3). Cell suspensions were prepared and diluted according to the particular cell type and the expected target cell density (25,000-30,000 cells/well based on cell growth characteristics). Cells were added by pipette (80 L) into 96-well microtiter plates. Inoculates were allowed a pre-incubation period of 24 h at 37° C. and 5% CO2 for stabilization. Four-fold dilutions, in 20-L aliquots, of the intended test concentration were added to the microtiter plate walls at time zero. All test compound concentrations were examined in duplicate. Incubation of the cells with the test compounds lasted for 72 h at 37° C., in a 5% CO2 atmosphere at 100% humidity. At the end of the incubation period, the cells were assayed using MTT. Aliquots (10 L) of the MTT stock solution (5 mg/ml) were pipetted into each well and incubated for another 1-4 h. After this incubation period the formazan produced was dissolved by addition of 100 µL/well of 10% aq SDS (pH 5.5), followed by a further incubation at 37° C. overnight. The optical density was measured at 540 nm. The IC50 value, the drug concentration inhibiting the cell growth by 50%, was calculated from appropriate dose-response curves.
(§2) In vitro cytotoxic/cytostatic activity final nucleosides 1-5 was initially evaluated against […] cell lines derived from human solid tumors including lung (A549 cells) and colon (HCT116 and HCT116p53−/−) carcinomas, as well as leukemia cell lines (CCRF-CEM, CEM-DNR, K562 and K562-TAX) and, for comparison, non-malignant BJ and MRC-5 fibroblasts. Concentrations inhibiting the cell growth by 50% (IC50) were determined using a quantitative metabolic staining with 3-(4,5-dimethylthiazol-2-yl)-2,5-diphenyltetrazolium bromide (MTT) (ref.: Denizot, F.; Lang, R. Rapid colorimetric assay for cell growth and survival: Modifications to the tetrazolium dye procedure giving improved sensitivity and reliability. J. Immunol. Meth. 1986, 89, 271-277) following a 3-day treatment.
In general terms: Tetrazolium dyes change colour on reduction, which living cells bring about.

For series [2], the system named is HCT116p53-/-. Kind of series: Cytostatic/cytotoxic MTT assay, HCT116p53-/-. The following applies: Homo sapiens, HCT-116; 72 h incubation; read-out: MTT, IC50 HCT116 p53-/-.
Description: as §1, §2
Multidrug resistance is a major therapeutic problem in cancer chemotherapy. […]

Series [3] concerns MRC-5. Description: Cytostatic/cytotoxic MTT assay, MRC-5 fibroblasts. The following applies: Homo sapiens, MRC5; non-malignant fibroblasts, 72 h; read-out: MTT, IC50 MRC-5.
Description: as §1, §2

The test system of series [4] is HL60. Kind of series: XTT cytotoxicity assay, HL-60. The following applies: Homo sapiens, HL-60; 72 h incubation; read-out: XTT, IC50 HL60. How it is done:
HL-60, Hela S3 and HepG2 cell lines (ATCC) were grown in RPMI-1640 or DMEM medium supplemented with 10% fetal calf serum, […] of streptomycin, 200 U/mL of penicillin G and 4 mM glutamine in a humidified atmosphere containing 5% CO2 at 37° C. Sensitivity of these cell lines to the synthesized compounds was assessed with the use of XTT cell proliferation kit II (Roche Diagnostics GmbH, Mannheim, Germany) according to the manufacturer's instructions. Briefly, cells were seeded in a 96-well plate at a density of 10,000 cells per well (90 μL). After 24 h, 10 μL of the tested compounds were added to the culture media at desired concentration range and incubated for 72 h. After that 50 μL of the XTT solution was added (1 mg/mL XTT+0.383 mg/mL N-methyl dibenzopyrazine methyl sulfate). The absorbance was recorded at 495 nm following a 2 h-incubation with the dye. IC50 values were determined by non-linear regression method using GraphPad Prism version 5.00 for Windows (GraphPad Software, La Jolla, Calif., USA).
In addition, the anti-proliferative effect was tested against a human T-lymphoblastic leukemia line CCRF-CEM, promyelocytic leukemia HL-60 and cervical carcinoma HeLa S3 growing in liquid suspension. Cell viability was determined following a 3-day incubation using 2,3-bis-(2-methoxy-4-nitro-5-sulfophenyl)-2H-tetrazolium-5-carboxanilide (XTT) assay (ref.: Scudiero, D. A.; Shoemaker, R. H.; Paull, K. D.; Monks, A.; Tierney, S.; Nofziger, T. H.; Currens, M. J.; Seniff, D.; Boyd M. R. Evaluation of a Soluble Tetrazolium/Formazan Assay for Cell Growth and Drug Sensitivity in Culture Using Human and Other Tumor Cell Lines. Cancer Res. 1988, 48, 4827-4833).

Series [5] deals with HCV subtype 2A replicon in Huh-7 cells. Kind of series: HCV sub-genomic reporter replicon assay, subtype 2A. The following applies: Hepatitis C virus; Huh-7 cells, HCV subtype 2A replicon; read-out: Replicon 2A EC50. How it is done: (§3) Compounds were also tested in Huh-7 cells harboring sub-genomic reporter replicons derived from HCV subtypes 1B and 2A (ref.: Stuyver, L. J.; Whitaker, T.; McBrayer, T. R.; Hernandez-Santiago, B. I.; Lostia, S.; Tharnish, P. M.; Ramesh, M.; Chu, C. K.; Jordan, R.; Shi, J. X.; Rachakonda, S.; Watanabe, K. A.; Otto, M. J.; Schinazi, R. F. Antimicrob. Agents Chemother. 2003, 47, 244-254).
A general note: Replicon systems follow genome replication, usually without infectious particles.

The subject of series [6] is Huh-7 cells harboring replicon 2A. Kind of series: Cytotoxicity in replicon 2A cells. The following applies: HCV subtype 2A replicon. The procedure:
as §3

One may read the EC50 as the concentration that produces a half-maximal response. What is called CC50 is the concentration that lowers cell viability or growth by half. A higher CC50 goes with lower toxicity to the cells. Turning to `CSc1ncnc2c1c(-c1ccccc1)cn2[C@@H]1O[C@H](CO)[C@@H](O)[C@H]1O` [Compound 2e, 4-Methylsulfanyl-5-phenyl-7-(β-D-ribofuranosyl)-7H-pyrrolo[2,3-d]pyrimidine], the IC50 is > 20 µM in series [1], > 20 µM in series [2], > 100 µM in series [3] and > 20 µM in series [4]. In series [5], the EC50 is > 44 µM. Also, the CC50 in series [6] is > 44 µM.

`CSc1ncnc2c1c(-c1cc3ccccc3o1)cn2[C@@H]1O[C@H](CO)[C@@H](O)[C@H]1O` [Compound 2f, 5-(Benzofuran-2-yl)-4-methylsulfanyl-7-(β-D-ribofuranosyl)-7H-pyrrolo[2,3-d]pyrimidine]: the IC50 in series [1] was 17.2 µM; in series [2], > 20 µM; in series [3], 70.8 µM; in series [4], 1.21 µM. Moreover, the EC50 in series [5] amounted to 29.6 µM. The CC50 in series [6] was > 44 µM.

Take `C#Cc1cn([C@@H]2O[C@H](CO)[C@@H](O)[C@H]2O)c2ncnc(SC)c12` [Compound 2g, 5-Ethynyl-4-methylsulfanyl-7-(β-D-ribofuranosyl)-7H-pyrrolo[2,3-d]pyrimidine]: the IC50 in series [1] is 0.03 µM; in series [2], 0.09 µM; in series [3], > 100 µM; in series [4] it was 0.05 µM. In addition, the EC50 in series [5] was > 44 µM. For the same compound, the CC50 in series [6] is > 44 µM.

For `CSc1ncnc2c1c(I)cn2[C@@H]1O[C@H](CO)[C@@H](O)[C@H]1O` [Compound 2h, 5-Iodo-4-methylsulfanyl-7-(β-D-ribofuranosyl)-7H-pyrrolo[2,3-d]pyrimidine], the IC50 is 10.5 µM in series [1], > 20 µM in series [2], > 100 µM in series [3] and 0.05 µM in series [4]. Besides, in series [5], the EC50 is > 44 µM. Besides, the CC50 in series [6] is > 44 µM.

As to `CNc1ncnc2c1c(-c1ccco1)cn2[C@@H]1O[C@H](CO)[C@@H](O)[C@H]1O` [Compound 3a, 5-(Furan-2-yl)-4-methylamino-7-(β-D-ribofuranosyl)-7H-pyrrolo[2,3-d]pyrimidine], the IC50 in series [1] is 0.22 µM; in series [2], 0.44 µM; in series [3] it was 90.8 µM; in series [4], 0.62 µM. Also, the EC50 in series [5] came out at 0.14 µM. The CC50 in series [6] was > 44 µM.

With `CNc1ncnc2c1c(-c1ccoc1)cn2[C@@H]1O[C@H](CO)[C@@H](O)[C@H]1O` [Compound 3b, 5-(Furan-3-yl)-4-methylamino-7-(β-D-ribofuranosyl)-7H-pyrrolo[2,3-d]pyrimidine], the IC50 in series [1] is > 20 µM; in series [2], > 20 µM; in series [3], > 100 µM; in series [4] it was > 15 µM. For the same compound, the EC50 in series [5] is > 44 µM. Further, in series [6], the CC50 was > 44 µM.

`CNc1ncnc2c1c(-c1cccs1)cn2[C@@H]1O[C@H](CO)[C@@H](O)[C@H]1O` [Compound 3c, 4-Methylamino-7-(β-D-ribofuranosyl)-5-(thiophen-2-yl)-7H-pyrrolo[2,3-d]pyrimidine]: the IC50 in series [1] is > 20 µM; in series [2] it was > 20 µM; in series [3], > 100 µM; in series [4] it was > 20 µM. Moreover, in series [5], the EC50 was > 44 µM. Further, the CC50 in series [6] was > 44 µM.

For `CNc1ncnc2c1c(-c1ccsc1)cn2[C@@H]1O[C@H](CO)[C@@H](O)[C@H]1O` [Compound 3d, 4-Methylamino-7-(β-D-ribofuranosyl)-5-(thiophen-3-yl)-7H-pyrrolo[2,3-d]pyrimidine], the IC50 in series [1] is > 20 µM; in series [2], > 20 µM; in series [3], > 100 µM; in series [4] it was > 20 µM. For the same compound, the EC50 in series [5] is > 44 µM. The CC50 in series [6] was > 44 µM.

Consider `CNc1ncnc2c1c(-c1ccccc1)cn2[C@@H]1O[C@H](CO)[C@@H](O)[C@H]1O` [Compound 3e, 4-Methylamino-5-phenyl-7-(β-D-ribofuranosyl)-7H-pyrrolo[2,3-d]pyrimidine], for which the IC50 in series [1] was > 20 µM; in series [2], > 100 µM; in series [3], > 100 µM; in series [4], > 20 µM. For the same compound, in series [5], the EC50 was > 44 µM. Further, in series [6], the CC50 is > 44 µM.

`CNc1ncnc2c1c(-c1cc3ccccc3o1)cn2[C@@H]1O[C@H](CO)[C@@H](O)[C@H]1O` [Compound 3f, 5-(Benzofuran-2-yl)-4-methylamino-7-(β-D-ribofuranosyl)-7H-pyrrolo[2,3-d]pyrimidine]: the IC50 in series [1] was > 20 µM; in series [2] it was > 20 µM; in series [3], 75.3 µM; in series [4], 8.95 µM. For the same compound, the EC50 in series [5] amounted to 13.6 µM. The CC50 in series [6] was > 44 µM.

As to `C#Cc1cn([C@@H]2O[C@H](CO)[C@@H](O)[C@H]2O)c2ncnc(NC)c12` [Compound 3g, 5-Ethynyl-4-methylamino-7-(β-D-ribofuranosyl)-7H-pyrrolo[2,3-d]pyrimidine], the IC50 in series [1] was > 20 µM; in series [2], > 20 µM; in series [3], > 100 µM; in series [4], 9.06 µM. Further, the EC50 in series [5] is > 44 µM. Besides, the CC50 in series [6] is > 44 µM.

On to `CN(C)c1ncnc2c1c(-c1ccco1)cn2[C@@H]1O[C@H](CO)[C@@H](O)[C@H]1O` [Compound 4a, 4-Dimethylamino-5-(furan-2-yl)-7-(β-D-ribofuranosyl)-7H-pyrrolo[2,3-d]pyrimidine], for which the IC50 in series [1] was 0.15 µM; in series [2], 0.32 µM; in series [3] it was > 100 µM; in series [4], 0.22 µM. In addition, the EC50 in series [5] came to 1.35 µM. Further, the CC50 in series [6] is > 44 µM.

The values are drawn from patent publication US9586986B2, “Substituted 7-deazapurine ribonucleosides for therapeutic uses” (Institute of Organic Chemistry and Biochemistry ASCR, v.v.i., priority 2014, dated 2017).
